Laboratory results from patent US9023844B2, “Heterocyclylpyri (mi) dinylpyrazole as fungicidals” (Bayer Intellectual Property GmbH, priority 2011, dated 2015).
Read-outs that look alike come from different tables or passages of the source.

How the values were obtained:
[1] = system: Pyrenophora teres; test: Example D: Pyrenophora test (barley) / preventive; assay type: in vivo
[2] = Determination of log P values by HPLC on a reverse phase column (C18), EEC-Directive 79/831 Annex V.A8 (Methods A, B, C); assay type: physicochemical; conditions: for chromatographic logP: reverse phase C18 HPLC column
Procedure: (§1) Note on the determination of the log P values and mass detection: The stated log P values were determined in accordance with EEC-Directive 79/831 Annex V.A8 by HPLC (High Performance Liquid Chromatography) on a reverse phase column (C18). Agilent 1100 LC system; 50*4.6 Zorbax Eclipse Plus C18 1.8 micron; eluent A: acetonitrile (0.1% formic acid); eluent B: water (0.09% formic acid); linear gradient from 10% acetonitrile to 95% acetonitrile in 4.25 mins, then 95% acetonitrile for a further 1.25 mins; oven temperature 55° C.; flow rate: 2.0 mL/min. The mass detection was effected with an Agilend MSD system.
as §1, with “HP1100;” for “Agilent 1100 LC system;”, “(0.08%” for “(0.09%”, “5%” for “10%”, “1.70 min,” for “4.25 mins,”, “1.00 min;” for “1.25 mins;”, “the Micronass ZQ2000 mass detector from Waters.” for “an Agilend MSD system.”
Note on the determination of the log P values and mass detection: The stated log P values were determined in accordance with EEC-Directive 79/831 Annex V.A8 by UPLC (Ultra Performance Liquid Chromatography) on a reverse phase column (C18). HP1100; 50*2.1 Zorbax Eclipse Plus C18 1.8 micron; eluent A: acetonitrile (0.09% formic acid); eluent B: water (0.1% formic acid); linear gradient from 10% A to 95% A in 3.25 min; oven temperature 40° C.; flow rate: 0.8 mL/min. The mass detection was effected with the LCT Premier or SQD mass detector from Waters.

[3] = system: Pyricularia oryzae; assay type: in vivo; conditions: in vivo
[4] = system: Sphaerotheca fuliginea; test: Example A: Sphaerotheca test (cucumber) / preventive; assay type: in vivo
[5] = system: Puccinia recondita; test: Example E: Puccinia test (wheat) / preventive; assay type: in vivo; conditions: in vivo
[6] = system: Uromyces appendiculatus; test: Example B: Uromyces test (beans) / preventive; assay type: in vivo; conditions: in vivo
[7] = system: Leptosphaeria nodorum; test: Example C: Leptosphaeria test (wheat) / preventive; assay type: in vivo; conditions: in vivo
[8] = Method B (HPLC, reverse phase C18)
[9] = Method C (HPLC, reverse phase C18)

Compound	efficacy ([1]; in vivo)	LogP [2, 8]	efficacy [3]	efficacy ([4]; in vivo)	efficacy [5]	efficacy [6]	efficacy [7]	efficacy ([1]; 500 ppm of active ingredient, barley, preventive spray, evaluated 7-9 days after inoculation)	chromatographic logP ([2]; Method C (HPLC, reverse phase C18), read-out: LogP)	chromatographic logP ([2]; pH 2.7, values in the synthesis examples, HPLC, reverse phase C18, read-out: log P (pH 2.7))	efficacy ([4]; 500 ppm of active ingredient, cucumber, preventive spray, evaluated 7 days after inoculation)	LogP [2, 9]
CSCC(=O)Nc1cc(-c2c(-c3ccccc3)nn3c2OCCC3)ccn1 [Example 16]	95%	1.54	94%	93%	95%	92%	–	–	–	–	–	–
CC(C)=CCC(=O)Nc1cc(-c2c(-c3ccccc3)nn3c2OCCC3)ccn1 [Example 19]	95%	1.91	94%	90%	95%	92%	–	–	–	–	–	–
CCOC(=O)Nc1cc(-c2c(-c3ccc(F)cc3)nn3c2OCCC3)ccn1 [Example 23]	95%	1.66	94%	–	95%	94%	–	–	–	–	–	–
C[C@H](O)C(=O)Nc1cc(-c2c(-c3ccc(F)cc3)nn3c2OCCC3)ccn1 [Example 26]	100%	1.31	94%	–	100%	72%	70%	–	–	–	–	–
O=C(CCc1ccccc1)Nc1cc(-c2c(-c3ccc(F)cc3)nn3c2OCCC3)ccn1 [Example 29]	70%	2.2	94%	–	95%	94%	–	–	–	–	–	–
CC(C(=O)Nc1cc(-c2c(-c3ccc(F)cc3)nn3c2OCCC3)ccn1)c1ccc(F)cc1 (stereo not shown) [Example 32]	90%	2.48	94%	–	100%	92%	–	–	–	–	–	–
CC(C)=CCC(=O)Nc1cc(-c2c(-c3ccc(F)cc3)nn3c2OCCC3)ccn1 [Example 33]	90%	2.07	94%	–	100%	89%	–	–	–	–	–	–
CCOC(=O)Nc1cc(-c2c(-c3ccc(F)cc3F)nn3c2OCCC3)ccn1 [Example 38]	95%	1.72	94%	–	90%	89%	–	–	–	–	–	–
C[C@H](O)C(=O)Nc1cc(-c2c(-c3ccc(F)cc3F)nn3c2OCCC3)ccn1 [Example 41]	90%	1.34	94%	–	95%	94%	–	–	–	–	–	–
O=C(CC1CC1)Nc1cc(-c2c(-c3ccc(F)cc3F)nn3c2OCCC3)ccn1 [Example 42]	100%	1.72	94%	–	95%	94%	70%	–	–	–	–	–
CC(C(=O)Nc1cc(-c2c(-c3ccc(F)cc3F)nn3c2OCCC3)ccn1)c1ccc(F)cc1 (stereo not shown) [Example 47]	80%	2.48	89%	–	95%	92%	–	–	–	–	–	–
CC(C)=CCC(=O)Nc1cc(-c2c(-c3ccc(F)cc3F)nn3c2OCCC3)ccn1 [Example 48]	70%	2.1	78%	–	95%	86%	–	–	–	–	–	–
CC(=O)N(C(C)=O)c1cc(-c2c(-c3ccccc3)nn3cccnc23)ccn1 [Example 56, N-Acetyl-N-[4-(2-phenylpyrazolo[1,5-a]pyrimidin-3-yl)pyridin-2-yl]acetamide]	–	–	–	–	–	–	–	95%	2.13	2.13	80%	–
CC(=O)N(C(C)=O)c1cc(-c2c(-c3ccc(F)cc3)nn3cccnc23)ccn1 [Example 83]	80%	–	–	90%	–	–	–	–	–	–	–	2.22
CCC(=O)Nc1cc(-c2c(-c3ccsc3)nn3c2OC[Si](C)(C)C3)ccn1 [Example 100]	95%	–	70%	–	–	–	80%	–	–	–	–	1.88
C[Si]1(C)COc2c(-c3ccnc(NC(=O)C4CC4)c3)c(-c3ccsc3)nn2C1 [Example 102]	100%	–	70%	–	–	–	80%	–	–	–	–	1.97
